Measurements as given in patent US5053006A, “Method for the permanent occlusion of arteries” (priority 1990, dated 1991).

Assays:
[1] = in vivo; cited from earlier work
femoral artery = experiment: Argon laser photothrombotic occlusion of femoral artery (Example 1); type: in vivo, rat (male Wistar)
Text: (§1) Male Wistar rats, each weighing 280 to 330 gm, were anesthetized with 1.5% halothane and maintained on a 70:30 mixture of nitrous oxide and oxygen delivered by a closely fitting Mylar face mask (Watson et al., J. Neurosurg., 66:748-754, 1987, the disclosure of which is hereby incorporated by reference and relied upon). After separation of the temporal musculature, the middle cerebral artery was exposed via a small subtemporal craniectomy produced by a high-speed drill under an operating microscope; the dura was left intact. The common carotid arteries were exposed bilaterally by a midline incision extending from the mental process to the sternal notch; the sternocleidomastoid muscle was then retracted laterally to expose the underlying artery. Bleeding from the operative site was controlled with pressure and Gelfoam. The animal was then prepared for irradiation by filling the surgical cavity with saline, just submerging the exposed blood vessel. The saline solution was kept clear by frequent suction and irrigation. The femoral arteries were exposed by bilateral inguinal incisions and were prepared for irradiation in a fashion similar to that described above.
As assessed by observation of rose bengal fluorescence, thrombus development in the common carotid or femoral arteries followed a course similar to that observed in the middle cerebral artery, except that the thrombus appeared as a […] as viewed through the blood vessel wall. Intense scattering of the incident laser light was also noted at about the time that arterial pulsations at the level of irradiation ceased.
(§2) Ultrastructural studies were carried out at either 30 minutes or 7 days following irradiation. Animals were perfused transcardially with 0.9% sodium chloride solution followed by 2% paraformaldehyde and 2.5% glutaraldehyde in a 0.1 M sodium phosphate buffer. Perfusion pressure was monitored throughout the procedure and was maintained at 100 mm Hg. After perfusion fixation, the femoral and common carotid arteries were isolated and placed in fixative for an additional 2 hours. To isolate the middle cerebral artery, the brain was first removed from the cranial vault and placed in fixative for a 2-hour period. Next, the whole brain was placed in phosphate-buffered 1% osmium tetroxide for 2 minutes.

[2] = system: middle cerebral artery (MCA); experiment: He-Ne laser photochemically induced MCA thrombosis (Example 7); type: in vivo, rat (male Sprague-Dawley)
Description: Normally fed male Sprague-Dawley rats weighting 280-330 gm were used. Anesthesia was induced with 4% halothane and maintained with 1.5% halothane, 70% N2 O and a balance of O2 delivered through a closely fitting face mask. Polyethylene catheters were inserted retrogradely into the right external carotid artery and right femoral artery and vein. The partial pressures of O2 and CO2 and the arterial pH were measured frequently. Rectal temperature was maintained at 37° C. by means of a heating pad.
Rats were mounted on a stereotaxic frame and the right MCA was exposed by a modified subtemporal approach. A portion of the jaw was removed, and the masseter muscle was retracted downward to facilitate exposure of the MCA. The mandibular joint was kept intact so as not to disturb normal feeding. To produce MCA occlusion in these studies, a low power He-Ne laser operating in the TEM^*01 (doughnut) mode at 0.8 mW and at a wavelength of 543.5 nm (PMS Electro-Optics, Boulder, CO.) was used. The efficiency of this laser in interacting with rose bengal dye is appreciable (58%) in that its emission wavelength is near the absorption maximum of rose bengal in tissue (562 nm). The animal was moutned in a stereotaxic frame, and its right side was tilted upward by 35° in order for the laser beam to strike the proximal MCA tangentially. The ring-shaped beam was focused transversely onto the exposed MCA by two crossed cylindrical lenses of 1- and 2-inch focal length. The resulting focused spot, rectangular in shape, was ~200 μm wide (spanning the diameter of the MCA perpendicular to its axis) and 40 μm high (parallel to the MCA axis).
MCA thrombosis was induced in two steps. First, the linear beam was focused transversely on the MCA segment just distal to the rhinal branch. The intensity of laser irradiation at the focal site was 10 W/cm^2. Rose bengal was then injected intravenously (30 mg/ml in saline, 0.67 ml/kg bw weight). An orange fluorescence was immediately observed in the irradiated MCA segment, and a white thrombus began to form within the fluorescent segment and gradually elongated rostrally. […]

middle cerebral artery = experiment: Argon laser photothrombotic occlusion of middle cerebral artery (Example 1); type: in vivo, rat (male Wistar)
Text: as §1
Thrombus development and subsequent occlusion of the middle cerebral artery were easily observed during irradiation owing to wall transparency. The irradiated segment emitted a bright orange fluorescence (as viewed through an interference filter which rejected the 514.5 nm argon line); this was attributed to rose bengal uptake by red blood cell membranes and binding to plasma proteins such as albumin. As the irradiation proceeded, the fluorescence became yellowish and less intense owing to the accumulation of platelets and exclusion of red blood cells from the developing thrombus. Complete occlusion was signaled by exclusion of red blood cells from the arterial segments both distal and proximal to the irradiated portion, leaving a single colorless segment 7 to 10 arterial diameters in length.
as §2
The blood vessels were then postfixed in Millonig's phosphate-buffered 1% osmium tetroxide for 1 hour. Specimens chosen for transmission electron microscopy were dehydrated in ethanol and propylene oxide and embedded in Poly-Bed 812 as previously described (Dietrich et al., J Neuropathol. Exp. Neurol., 43:72-83, 1984). Sections 1 μm thick were cut with glass knives on a Sorvall ultra-microtome and stained with toluidine blue. To characterize the occlusive material more completely, ultra-thin sections stained with uranyl acetate and lead citrate were examined with a Zeiss EM-10C electron microscope. The blood vessels chosen for scanning electron microscopy analysis were examined under a dissecting microscope and cut longitudinally with a scalpel blade to expose the luminal surface. The blood vessels were then dehydrated in graded ethanols and placed in Freon. The tissue was critical-point dried, coated with gold, and examined and photographed with a JEOL JSM-35C scanning electron microscope.

SMILES: O=C([O-])c1c(Cl)c(Cl)c(Cl)c(Cl)c1-c1c2cc(I)c(=O)c(I)c-2oc2c(I)c([O-])c(I)cc12.[Na+].[Na+] [rose bengal]
- disappearance through the feces [1]: 3 days
- complete occlusion, irradiation time (femoral artery; 40 mg/kg i.v., 514.5 nm argon laser): ≤ 3 min
- energy fluence at occlusion (femoral artery; 514.5 nm argon laser): about 35 kJ/sq cm
- total energy deposited at occlusion (femoral artery; 514.5 nm argon laser): 140 to 180 joules (J)
- occlusion, irradiation time (femoral artery; one-half the standard dose (20 mg/kg), two rats): ≤ 4 min
- time to complete MCA occlusion ([2]; 30 mg/ml, 0.67 ml/kg i.v., 543.5 nm He-Ne, first irradiation): ≤ 10 min
- thrombus length ([2]; end of second irradiation): about 1.2 mm
- thrombus length ([2]; first irradiation): ~ 400 μm
- length of colorless occluded segment (middle cerebral artery; complete occlusion): 7 to 10 arterial diameters
- recanalization on saline bolus (middle cerebral artery; five minutes after completion of irradiation): no recanalization was observed
- energy fluence (middle cerebral artery; rat, in vivo): ~3.5 kJ/sq cm
- total energy deposited (middle cerebral artery; rat, in vivo): approximately 1 J
- thrombus composition (middle cerebral artery; ultrastructural analysis): composed primarily of aggregated platelets
- irradiation time to effect complete occlusion (middle cerebral artery; very low incident intensity): ≤ 3 min
